This note sets out measurements from ChEMBL document CHEMBL2073929, “Interactions of rifamycin SV and rifampicin with organic anion uptake systems of human liver” (Hepatology, 2002).

Usually Km stands for the concentration of substrate that gives half-maximal velocity. As a reminder, the Ki is the dissociation constant of the complex between target and ligand, obtained from inhibition or displacement.

Data set [1] concerns the target T1, Solute carrier organic anion transporter family member 1B3 (OATP1B3) (Homo sapiens, UniProt Q9NPD5).
T1 sequence (Q9NPD5 whole entry): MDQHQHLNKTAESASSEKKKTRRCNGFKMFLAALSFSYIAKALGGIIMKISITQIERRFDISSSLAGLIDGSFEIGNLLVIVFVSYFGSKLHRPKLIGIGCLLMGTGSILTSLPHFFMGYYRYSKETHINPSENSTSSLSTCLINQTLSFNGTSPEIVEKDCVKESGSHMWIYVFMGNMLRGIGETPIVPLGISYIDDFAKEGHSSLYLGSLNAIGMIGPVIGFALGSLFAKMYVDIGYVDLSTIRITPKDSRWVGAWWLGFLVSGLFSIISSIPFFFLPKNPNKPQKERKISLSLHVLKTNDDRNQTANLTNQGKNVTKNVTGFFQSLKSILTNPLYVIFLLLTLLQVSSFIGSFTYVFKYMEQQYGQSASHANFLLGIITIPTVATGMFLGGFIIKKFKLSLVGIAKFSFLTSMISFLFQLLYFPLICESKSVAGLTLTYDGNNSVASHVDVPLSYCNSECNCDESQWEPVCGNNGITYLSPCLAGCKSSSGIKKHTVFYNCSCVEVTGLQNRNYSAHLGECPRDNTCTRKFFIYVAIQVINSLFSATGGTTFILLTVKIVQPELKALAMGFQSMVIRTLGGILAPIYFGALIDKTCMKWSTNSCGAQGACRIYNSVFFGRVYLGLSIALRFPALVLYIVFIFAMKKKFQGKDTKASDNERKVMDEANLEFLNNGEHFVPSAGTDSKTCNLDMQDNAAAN
In words: (§1) TP_TRANSPORTER: uptake in Xenopus laevis oocytes. The settings on record: Xenopus laevis oocytes expressing the transporter. Type of data set: functional, cell-based, Oocyte.

Data set [2] addresses T2, Solute carrier organic anion transporter family member 2B1 (Homo sapiens, UniProt O94956).
T2 sequence (O94956 whole entry): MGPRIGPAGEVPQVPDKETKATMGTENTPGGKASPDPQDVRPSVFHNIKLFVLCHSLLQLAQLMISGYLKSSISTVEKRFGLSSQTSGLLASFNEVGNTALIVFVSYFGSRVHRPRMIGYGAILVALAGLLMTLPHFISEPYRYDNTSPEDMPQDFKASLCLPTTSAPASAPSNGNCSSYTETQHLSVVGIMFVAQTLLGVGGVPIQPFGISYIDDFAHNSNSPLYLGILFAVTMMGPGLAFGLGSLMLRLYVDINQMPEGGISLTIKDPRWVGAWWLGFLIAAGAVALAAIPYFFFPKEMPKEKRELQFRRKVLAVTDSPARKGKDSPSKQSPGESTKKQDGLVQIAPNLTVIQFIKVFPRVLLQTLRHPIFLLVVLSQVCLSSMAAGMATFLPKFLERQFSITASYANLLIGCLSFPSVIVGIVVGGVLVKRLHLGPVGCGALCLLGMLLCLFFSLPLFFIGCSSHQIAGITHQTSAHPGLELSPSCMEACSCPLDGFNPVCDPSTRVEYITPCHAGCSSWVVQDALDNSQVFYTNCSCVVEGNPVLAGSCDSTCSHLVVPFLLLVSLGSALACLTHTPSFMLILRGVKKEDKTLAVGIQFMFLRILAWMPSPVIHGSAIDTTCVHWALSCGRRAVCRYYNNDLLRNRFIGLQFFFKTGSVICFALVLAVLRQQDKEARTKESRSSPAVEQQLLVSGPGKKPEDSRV
The data set is described as §1. Format: functional, cell-based. Particulars: oocyte.

In data set [3] the target is T3, Solute carrier organic anion transporter family member 1A2 (Homo sapiens, UniProt P46721).
T3 sequence (P46721 whole entry): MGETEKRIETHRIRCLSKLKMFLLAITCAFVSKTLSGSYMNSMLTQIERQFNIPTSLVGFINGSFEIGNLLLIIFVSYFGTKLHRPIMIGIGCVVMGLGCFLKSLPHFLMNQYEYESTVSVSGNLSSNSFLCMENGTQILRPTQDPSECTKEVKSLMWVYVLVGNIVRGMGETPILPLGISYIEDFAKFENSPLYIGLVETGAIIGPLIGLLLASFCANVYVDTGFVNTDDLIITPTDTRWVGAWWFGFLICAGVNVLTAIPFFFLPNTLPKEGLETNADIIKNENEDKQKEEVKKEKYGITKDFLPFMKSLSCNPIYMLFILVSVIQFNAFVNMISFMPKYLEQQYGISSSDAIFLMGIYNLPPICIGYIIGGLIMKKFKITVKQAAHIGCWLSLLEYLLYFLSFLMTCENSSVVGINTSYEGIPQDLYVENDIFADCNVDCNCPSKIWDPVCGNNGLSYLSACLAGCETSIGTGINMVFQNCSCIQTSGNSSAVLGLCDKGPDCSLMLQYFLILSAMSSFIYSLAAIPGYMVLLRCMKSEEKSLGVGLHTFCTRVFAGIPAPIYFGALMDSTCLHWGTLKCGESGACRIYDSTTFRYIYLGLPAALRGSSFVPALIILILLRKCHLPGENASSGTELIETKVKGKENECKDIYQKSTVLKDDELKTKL
Described as §1. Type of data set: functional, cell-based. Particulars: oocyte.

Data set [4] has as its target T4, Solute carrier organic anion transporter family member 1B1 (Homo sapiens, UniProt Q9Y6L6).
T4 sequence (Q9Y6L6 whole entry): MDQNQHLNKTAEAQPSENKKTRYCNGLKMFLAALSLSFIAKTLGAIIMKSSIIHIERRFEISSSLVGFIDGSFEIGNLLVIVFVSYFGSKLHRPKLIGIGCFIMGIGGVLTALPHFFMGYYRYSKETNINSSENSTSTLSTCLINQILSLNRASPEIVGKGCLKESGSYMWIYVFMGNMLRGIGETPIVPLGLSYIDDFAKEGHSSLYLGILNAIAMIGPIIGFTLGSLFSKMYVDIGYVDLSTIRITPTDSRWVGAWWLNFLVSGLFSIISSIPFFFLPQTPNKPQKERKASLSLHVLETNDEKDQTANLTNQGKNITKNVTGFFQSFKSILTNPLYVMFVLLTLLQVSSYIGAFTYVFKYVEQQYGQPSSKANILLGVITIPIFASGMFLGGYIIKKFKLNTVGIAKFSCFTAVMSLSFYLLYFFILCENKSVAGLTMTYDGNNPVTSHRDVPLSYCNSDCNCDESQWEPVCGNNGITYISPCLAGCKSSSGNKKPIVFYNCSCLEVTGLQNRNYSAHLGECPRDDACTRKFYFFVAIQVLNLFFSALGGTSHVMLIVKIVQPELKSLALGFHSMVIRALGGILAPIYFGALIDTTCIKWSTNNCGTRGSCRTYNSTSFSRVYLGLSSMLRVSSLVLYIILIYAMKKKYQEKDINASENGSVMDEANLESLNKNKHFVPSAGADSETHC
Description: (§2) TP_TRANSPORTER: inhibition of BSP uptake in Xenopus laevis oocytes. Format: functional, cell-based, Oocyte.

The target of data set [5] is T5, Solute carrier organic anion transporter family member 1B3 (Homo sapiens, UniProt Q9NPD5).
T5 sequence (Q9NPD5 whole entry): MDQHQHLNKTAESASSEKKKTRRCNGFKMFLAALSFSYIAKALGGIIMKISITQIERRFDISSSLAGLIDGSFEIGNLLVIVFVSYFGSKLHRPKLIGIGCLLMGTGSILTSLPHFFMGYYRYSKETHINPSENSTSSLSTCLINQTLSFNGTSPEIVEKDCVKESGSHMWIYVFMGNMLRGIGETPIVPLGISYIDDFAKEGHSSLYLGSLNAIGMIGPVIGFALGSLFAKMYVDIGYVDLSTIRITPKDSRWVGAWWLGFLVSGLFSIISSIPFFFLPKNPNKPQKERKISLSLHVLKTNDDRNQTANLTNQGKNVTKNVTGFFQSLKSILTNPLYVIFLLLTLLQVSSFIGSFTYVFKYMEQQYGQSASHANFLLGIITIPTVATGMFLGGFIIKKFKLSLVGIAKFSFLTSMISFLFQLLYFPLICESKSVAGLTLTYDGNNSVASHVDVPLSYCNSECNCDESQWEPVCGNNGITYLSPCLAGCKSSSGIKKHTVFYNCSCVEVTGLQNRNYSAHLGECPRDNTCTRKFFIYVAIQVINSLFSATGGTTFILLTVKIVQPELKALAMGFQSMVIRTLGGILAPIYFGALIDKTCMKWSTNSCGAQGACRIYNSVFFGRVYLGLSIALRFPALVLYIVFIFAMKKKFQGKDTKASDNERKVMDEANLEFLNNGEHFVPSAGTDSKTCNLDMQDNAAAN
The data set is described as §2. Format: functional, cell-based, Oocyte.

Data set [6] addresses T3, Solute carrier organic anion transporter family member 1A2. Described as §2. Format: functional, cell-based, Oocyte.
Data set [7] has as its target T2, Solute carrier organic anion transporter family member 2B1. The description is as §2. Format: functional, cell-based, Oocyte.
Substrate in data set [8]: CO[C@H]1/C=C/O[C@@]2(C)Oc3c(C)c(O)c4c(O)c(c(/C=N/N5CCN(C)CC5)c(O)c4c3C2=O)NC(=O)/C(C)=C\C=C\[C@H](C)[C@H](O)[C@@H](C)[C@@H](O)[C@@H](C)[C@H](OC(C)=O)[C@@H]1C
Described as §1. Format: functional, cell-based, Oocyte.

With `CO[C@H]1/C=C/O[C@@]2(C)Oc3c(C)c(O)c4c(O)c(c(/C=N/N5CCN(C)CC5)c(O)c4c3C2=O)NC(=O)/C(C)=C\C=C\[C@H](C)[C@H](O)[C@@H](C)[C@@H](O)[C@@H](C)[C@H](OC(C)=O)[C@@H]1C` [RIFAMPIN], the Michaelis-Menten constant (Km) in data set [1] was found to be 2300 nM. Also, the Activity entry in data set [2] and in data set [3] was “is not a substrate [-]” in each case. Also, the Ki in data set [4] is 17 µM; in data set [5] it was 5 µM; in data set [6] it was 51 µM.
For the molecule `CO[C@H]1/C=C/O[C@@]2(C)Oc3c(C)c(O)c4c(O)c(cc(O)c4c3C2=O)NC(=O)/C(C)=C\C=C\[C@H](C)[C@H](O)[C@@H](C)[C@@H](O)[C@@H](C)[C@H](OC(C)=O)[C@@H]1C` [RIFAMYCIN], the Ki was found to be 2 µM in data set [4], 3 µM in data set [5], 3 µM in data set [7] and 11 µM in data set [6].

B1: Solute carrier organic anion transporter family member 1B1 (Homo sapiens) (protein)
chain: MDQNQHLNKTAEAQPSENKKTRYCNGLKMFLAALSLSFIAKTLGAIIMKSSIIHIERRFEISSSLVGFIDGSFEIGNLLVIVFVSYFGSKLHRPKLIGIGCFIMGIGGVLTALPHFFMGYYRYSKETNINSSENSTSTLSTCLINQILSLNRASPEIVGKGCLKESGSYMWIYVFMGNMLRGIGETPIVPLGLSYIDDFAKEGHSSLYLGILNAIAMIGPIIGFTLGSLFSKMYVDIGYVDLSTIRITPTDSRWVGAWWLNFLVSGLFSIISSIPFFFLPQTPNKPQKERKASLSLHVLETNDEKDQTANLTNQGKNITKNVTGFFQSFKSILTNPLYVMFVLLTLLQVSSYIGAFTYVFKYVEQQYGQPSSKANILLGVITIPIFASGMFLGGYIIKKFKLNTVGIAKFSCFTAVMSLSFYLLYFFILCENKSVAGLTMTYDGNNPVTSHRDVPLSYCNSDCNCDESQWEPVCGNNGITYISPCLAGCKSSSGNKKPIVFYNCSCLEVTGLQNRNYSAHLGECPRDDACTRKFYFFVAIQVLNLFFSALGGTSHVMLIVKIVQPELKSLALGFHSMVIRALGGILAPIYFGALIDTTCIKWSTNNCGTRGSCRTYNSTSFSRVYLGLSSMLRVSSLVLYIILIYAMKKKYQEKDINASENGSVMDEANLESLNKNKHFVPSAGADSETHC
As to B1, the Km in data set [8] came to 13 µM.
